How the values were obtained:
[1] = molecular target: T1, Cathepsin L2 (Homo sapiens, UniProt O60911); test: Inhibition of human recombinant cathepsin V expressed in Pichia pastoris
T1 sequence (O60911 whole entry): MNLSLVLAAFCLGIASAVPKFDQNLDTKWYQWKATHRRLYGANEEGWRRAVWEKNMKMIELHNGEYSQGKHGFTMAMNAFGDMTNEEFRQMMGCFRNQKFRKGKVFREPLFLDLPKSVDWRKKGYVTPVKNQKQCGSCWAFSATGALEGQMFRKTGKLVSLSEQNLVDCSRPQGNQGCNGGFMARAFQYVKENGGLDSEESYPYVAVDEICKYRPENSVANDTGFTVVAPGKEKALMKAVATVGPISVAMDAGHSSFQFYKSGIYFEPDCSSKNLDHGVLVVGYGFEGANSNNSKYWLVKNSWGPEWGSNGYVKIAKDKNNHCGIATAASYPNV

[2] = molecular target: T1, Cathepsin L2; test: Inhibition of human recombinant cathepsin V expressed in Pichia pastoris by Lineweaver-Burk double-reciprocal plots

COc1c(O)c(CC=C(C)C)c(O)c2c(=O)c3c(CC=C(C)C)ccc(O)c3n(C)c12
IC50 [1]: 2.5 µM | Ki [2]: 0.5 µM

COc1c2c(c(O)c3c(=O)c4cccc(O)c4n(C)c13)CC(C(C)(C)O)O2 (stereo not given)
IC50 [1]: 5.2 µM | Ki [2]: 4.4 µM

COc1c(O)c2c(c3c(=O)c4cccc(O)c4n(C)c13)OC(C)(C)C(O)C2 (stereo not given)
IC50 [1]: 2.8 µM | Ki [2]: 1.7 µM

Cn1c2c(O)cccc2c(=O)c2c(O)cc3c(c21)C=CC(C)(C)O3
IC50 [1]: 48 µM

CC(C)=CCc1c(O)cc2c(c1O)c(=O)c1c(CC=C(C)C)ccc(O)c1n2C
IC50 [1]: 3.9 µM | Ki [2]: 1.2 µM

COc1c(OC)c(OC)c2c(c1O)c(=O)c1cccc(O)c1n2C [CITIBRASINE]
IC50 [1]: 1.2 µM | Ki [2]: 0.2 µM

COc1c(O)cc(O)c2c(=O)c3cccc(O)c3n(C)c12 [CITRUSININE-II]
IC50 [1]: 10 µM | Ki [2]: 4.2 µM

COc1cc(O)c2c(=O)c3cccc(O)c3n(C)c2c1OC [CITRUSININE-I]
IC50 [1]: 2.2 µM | Ki [2]: 1 µM

COc1c(O)c(CC=C(C)C)c(O)c2c(=O)c3cccc(O)c3n(C)c12 [GLYCOCITRINE-IV]
IC50 [1]: 2.2 µM | Ki [2]: 1.1 µM

CC(C)=CCc1c(O)cc(O)c2c(=O)c3cccc(O)c3n(C)c12 [GLYCOCITRINE-I]
IC50 [1]: 25 µM | Ki [2]: 10 µM

COc1c2c(c(O)c3c(=O)c4cccc(O)c4n(C)c13)C=CC(C)(C)O2 [PYRANOFOLINE]
IC50 [1]: 44 µM

From ChEMBL document CHEMBL1667860, “Acridone alkaloids as potent inhibitors of cathepsin V” (Bioorg Med Chem, 2011)
